The first series in a line: Identification of perfumery raw materials that promote hydrogen sulfide formation (1:1 w/w mix, storage, smell). It is filed as physicochemical. To be noted: raw materials named in Example 2 as not promoting; test conditions not repeated there. The protocol:
In other words, each of the perfumery raw materials being present in the perfume composition is capable of inducing a hydrogen sulfide smell when being mixed individually in a 1:1 (w/w) ratio with the sulfur-containing pro-fragrance compound and being stored for 2 weeks at 50° C. Preferably, a hydrogen sulfide smell is induced when being mixed in a 1:1 (w/w) ratio with 3-(dodecylthio)-1-(2,6,6-trimethylcyclohex-3-en-1-yl) butan-1-one (HaloScent® D) and stored for 2 weeks at 50° C. Preferably, the mixing is carried out in a 10 mL glass jar. The perfumery raw materials may be used as such or may be dissolved in a solvent, for example at a concentration of from 10% to 50%.
Perfumery raw materials that promote the formation of hydrogen sulfide from 3-(dodecylthio)-1-(2,6,6-trimethylcyclohex-3-en-1-yl) butan-1-one (HaloScent® D) have been identified by mixing individual perfumery raw materials with 3-(dodecylthio)-1-(2,6,6-trimethylcyclohex-3-en-1-yl) butan-1-one (HaloScent® D) in a 1:1 (w/w) ratio in a 10 mL glass jar and storing said mixture for 2 weeks at 50° C. In case a hydrogen sulfide smell (similar to rotten egg odor) could be perceived after 2 weeks, it has been concluded that the perfumery raw material promotes the formation of hydrogen sulfide from 3-(dodecylthio)-1-(2,6,6-trimethylcyclohex-3-en-1-yl) butan-1-one (HaloScent® D).
For the compound `CC/C=C\CCO` [(3Z)-3-hexen-1-ol], the “promotion of formation of hydrogen sulfide from HaloScent® D” value (shortened to “promotion”) was “do not promote the formation of hydrogen sulfide”.

With `CCCC(=O)OC(C)(C)Cc1ccccc1` [1,1-dimethyl-2-phenylethyl butanoate], the “promotion” value is reported as “do not promote the formation of hydrogen sulfide”.

`CC/C=C\CCOC(=O)OC` [(3Z)-hex-3-en-1-yl methyl carbonate]: the “promotion” value is on record as “do not promote the formation of hydrogen sulfide”.

On to `CC(=O)c1ccccc1` [acetophenone], for which the “promotion” value is recorded as “do not promote the formation of hydrogen sulfide”.

With `CC(=O)O[C@@H]1CC2CC[C@]1(C)C2(C)C` [(1R,2R)-1,7,7-trimethyl-bicyclo[2.2.1]hept-2-yl acetate], the “promotion” value is listed as “do not promote the formation of hydrogen sulfide”.

Consider `COC(Cc1ccccc1)OC` [(2,2-dimethoxyethyl)benzene], for which the “promotion” value was “do not promote the formation of hydrogen sulfide”.

On to `CC(=O)OC(C)(C)Cc1ccccc1` [1,1-dimethyl-2-phenylethyl acetate], for which the “promotion” value is reported as “do not promote the formation of hydrogen sulfide”.

As for `C=CCc1ccc(O)c(OC)c1` [2-methoxy-4-(2-propen-1-yl) phenol], the “promotion” value is “do not promote the formation of hydrogen sulfide”.

In the case of `c1ccc(Oc2ccccc2)cc1` [1,1′-oxydibenzene], the “promotion” value is on record as “do not promote the formation of hydrogen sulfide”.

In the case of `C=C(OC(C)=O)c1ccccc1` [1-phenylvinyl acetate], the “promotion” value was “do not promote the formation of hydrogen sulfide”.

In the case of `COc1ccc(C)cc1` [1-methoxy-4-methylbenzene], the “promotion” value is “do not promote the formation of hydrogen sulfide”.

As to `CCCC(=O)OCC(C)CC` (stereo not shown) [2-methylbutyl butyrate], the “promotion” value was “do not promote the formation of hydrogen sulfide”.

In the case of `O=C1CCCCCCCCCCCC(=O)OCCO1` [1,4-dioxacycloheptadecane-5,17-dione], the “promotion” value was “do not promote the formation of hydrogen sulfide”.

Regarding allyl(⅔-methylbutoxy)acetate, the “promotion” value is “do not promote the formation of hydrogen sulfide”.

Regarding `CC1C(C)(C)C2=C(C(=O)CCC2)C1(C)C` (stereo not shown) [1,1,2,3,3-pentamethyl-1,2,3,5,6,7-hexahydro-4H-inden-4-one], the “promotion” value is given as “do not promote the formation of hydrogen sulfide”.

`C/C=C/c1ccc(O)c(OC)c1` [2-methoxy-4-[(1E)-1-propen-1-yl]phenol]: the “promotion” value is reported as “do not promote the formation of hydrogen sulfide”.

On to `COC(=O)c1ccccc1O` [methyl 2-hydroxybenzoate], for which the “promotion” value was “do not promote the formation of hydrogen sulfide”.

Regarding `CCOC(=O)/C=C/c1ccccc1` [ethyl (E)-3-phenyl-2-propenoate], the “promotion” value is on record as “do not promote the formation of hydrogen sulfide”.

In the case of `CC(C)CCCC(C)CCO` (racemic) [(+/−)-3,7-dimethyl-1-octanol], the “promotion” value is reported as “do not promote the formation of hydrogen sulfide”.

Turning to `CCCC(=O)OCCC(C)C` [3-methylbutyl butyrate], the “promotion” value is on record as “do not promote the formation of hydrogen sulfide”.

Regarding `CCCCCCOC(C)=O` [hexyl acetate], the “promotion” value is recorded as “do not promote the formation of hydrogen sulfide”.

Another series can be described thus: logP above 4 (octanol-water partition coefficient). To be noted: Yes/No.
With `CC(=O)C1(C)CC2=C(CCCC2(C)C)CC1C` (stereo not shown) [1-(octahydro-2,3,8,8-tetramethyl-2-naphtalenyl)-1-ethanone], the “logP > 4” value was “Yes”.

In the case of `CCC(C)(O)CCCC(C)C` (racemic) [(+/−)-3,7-dimethyl-3-octanol], the “logP > 4” value is “No”.

Consider `CC(C)=CCC[C@@H](C)CC#N` [(−)-(R)-3,7-dimethyl-6-octenenitrile], for which the “logP > 4” value is reported as “No”.

On to `N#CC(=C1CCCCC1)c1ccccc1` [cyclohexylidene(phenyl)acetonitrile], for which the “logP > 4” value is on record as “No”.

In the case of `OCCc1ccccc1` [2-phenylethanol], the “logP > 4” value is listed as “No”.

As to `CCOc1ccc2ccccc2c1` [2-ethoxynaphthalene], the “logP > 4” value was “No”.

Take `CC1(C)CCC[C@]2(C)[C@H]3CCO[C@]3(C)CC[C@@H]12` (racemic) [(3aRS,5aSR,9aSR,9bRS)-3a,6,6,9a-tetramethyldodecahydronaphtho[2,1-b]furan]: the “logP > 4” value is listed as “Yes”.

Regarding `C=CC(C)(CCC=C(C)C)OC(C)=O` (racemic) [(+/−)-1,5-dimethyl-1-vinyl-4-hexenyl acetate], the “logP > 4” value is “Yes”.

With `C=CC(C)CCCC(C)(C)O` (racemic) [(+−)-2,6-dimethyl-7-octen-2-ol], the “logP > 4” value is on record as “No”.

For the compound `c1ccc2[nH]ccc2c1` [Indole], the “logP > 4” value was “No”.

Take `CCC(=CCC1CC=C(C)C1(C)C)CO` (racemic) [(+/−)-2-ethyl-4-(2,2,3-trimethyl-3-cyclopenten-1-yl)-2-buten-1-ol]: the “logP > 4” value is recorded as “Yes”.

With `CC(CO)c1ccccc1` (racemic) [(+/−)-2-phenyl-1-propanol], the “logP > 4” value is on record as “No”.

On to `Cc1ccc2c(c1)CC(C)(CO)C2` (racemic) [(+/−)-2,5-dimethyl-2,3-dihydro-1H-inden-2-yl)methanol], for which the “logP > 4” value is “No”.

Consider `CC1=CC[C@H](/C=C/C(C)(C)C(C)O)C1(C)C` (stereo partly drawn) [(4E)-3,3-dimethyl-5-[(1R)-2,2,3-trimethyl-3-cyclopenten-1-yl]-4-penten-2-ol], for which the “logP > 4” value was “Yes”.

As to `CC/C=C\CCOC(=O)c1ccccc1O` [(3Z)-3-hexen-1-yl salicylate], the “logP > 4” value is recorded as “Yes”.

As to “tricyclo[5.2.1.0^2,6]dec-3/4-en-8-yl propanoate”, the “logP > 4” value was “Yes”.

With `CCCCC[C@H]1C(=O)CC[C@@H]1CC(=O)OC` (racemic) [methyl 2-((1RS,2RS)-3-oxo-2-pentylcyclopentyl)acetate], the “logP > 4” value was “No”.

`CC(=O)c1ccc2ccccc2c1` [1-(2-naphthyl)ethanone]: the “logP > 4” value is reported as “No”.

For the compound `CC1=CCC(C(C)(C)O)CC1` (racemic) [(+/−)-alpha-terpineol], the “logP > 4” value is listed as “No”.

As for `CCC(O)COC1CCCCC1C(C)(C)C` (racemic) [(+/−)-1-(2-tert-butyl-1-cyclohexyloxy)-2-butanol], the “logP > 4” value is “Yes”.

For `C=CC(C)(O)CCC=C(C)C` (racemic) [(+/−)-3,7-dimethyl-1,6-octadien-3-ol], the “logP > 4” value is “No”.

Take `CCC(=O)OCC(C)(C)O[C@@H](C)[C@@H]1CCCC(C)(C)C1` [(+)-2-{(1S)-1-[(1R)-3,3-dimethylcyclohexyl]ethoxy}-2-methylpropyl propionate]: the “logP > 4” value was “Yes”.

Turning to `C=CCOC(=O)CCC1CCCCC1` [allyl 3-cyclohexylpropanoate], the “logP > 4” value is recorded as “Yes”.

3-methyl-4/5-cyclopentadecen-1-one: the “logP > 4” value was “Yes”.

For the compound `CC(=O)CCc1ccc(O)cc1` [4-(4-hydroxyphenyl)-2-butanone], the “logP > 4” value was “No”.
